According to US20230372498A1, “PLK1 SELECTIVE DEGRADATION INDUCING COMPOUND” (UPPTHERA, priority 2020, published 2023):

Biological target: T1, PLK1 (Homo sapiens, UniProt P53350)
T1 construct: endogenous in cells; host or cells: HeLa
Experiment: PLK1 protein degradation in HeLa cells, Western blotting (PLK1/GAPDH ratio)
Assay type: cell-based
Settings: 6 hours compound incubation; for DC50: measured only if the grade of Dmax is A or B; for Dmax: thymidine block and release, 10 points three-fold from 3 μM, PLK1 to GAPDH ratio, read-out: Dmax
Summary of the method: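 Thymidine-synchronised HeLa cells (2 mM, 24 h) released 4 h into complete medium, then treated 6 h with compound in 10-point 3-fold dilutions from 3 μM. RIPA lysates (15 μg protein) run on SDS-PAGE; PLK1 Western blot normalised to GAPDH.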

T1 sequence (P53350 whole entry): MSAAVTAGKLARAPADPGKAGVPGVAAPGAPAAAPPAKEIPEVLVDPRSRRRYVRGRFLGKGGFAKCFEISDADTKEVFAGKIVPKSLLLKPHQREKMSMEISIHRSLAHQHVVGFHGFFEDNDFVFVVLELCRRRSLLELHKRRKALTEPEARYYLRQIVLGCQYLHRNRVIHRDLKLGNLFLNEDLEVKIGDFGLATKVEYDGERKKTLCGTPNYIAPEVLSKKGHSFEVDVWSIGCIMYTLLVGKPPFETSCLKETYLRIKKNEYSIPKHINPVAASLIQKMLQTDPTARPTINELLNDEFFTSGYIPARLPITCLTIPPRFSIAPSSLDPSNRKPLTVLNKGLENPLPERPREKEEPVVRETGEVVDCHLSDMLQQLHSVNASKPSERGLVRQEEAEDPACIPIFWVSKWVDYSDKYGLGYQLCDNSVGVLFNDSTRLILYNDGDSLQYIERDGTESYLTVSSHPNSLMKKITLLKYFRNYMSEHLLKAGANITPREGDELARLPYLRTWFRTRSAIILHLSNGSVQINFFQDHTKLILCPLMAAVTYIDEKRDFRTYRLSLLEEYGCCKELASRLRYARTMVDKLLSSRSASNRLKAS

With `COc1cc(C(=O)NCCOCCCNc2cccc3c2C(=O)N(C2CCC(=O)NC2=O)C3=O)c(F)cc1Nc1ncc2c(n1)N(C1CCCC1)CC(F)(F)C(=O)N2C` (centres unmarked) [Compound 155, 4-((9-cyclopentyl-7,7-difluoro-5-methyl-6-oxo-6,7,8,9-tetrahydro-5H-pyrimido[4,5-b][1,4]diazepin-2-yl)amino)-N-(2-(3-((2-(2,6-dioxopiperidin-3-yl)-1,3-dioxoisoindolin-4-yl)amino)propoxy)ethyl)-2-fluoro-5-methoxybenzamide] the DC50 was ≤ 500 nM and the Dmax was 60 to 80%.
`COc1cc(C(=O)NC2CCN(CCOCCOCCNc3cccc4c3C(=O)N(C3CCC(=O)NC3=O)C4=O)CC2)ccc1Nc1ncc2c(n1)N(C1CCCC1)CC(F)(F)C(=O)N2C` (centres unmarked) [Example 96, 4-((9-cyclopentyl-7,7-difluoro-5-methyl-6-oxo-6,7,8,9-tetrahydro-5H-pyrimido[4,5-b][1,4]diazepin-2-yl)amino)-N-(1-(2-(2-(2-((2-(2,6-dioxopiperidin-3-yl)-1,3-dioxoisoindolin-4-yl)amino)ethoxy)ethoxy)ethyl)piperidin-4-yl)-3-methoxybenzamide] was tested, and the DC50 was ≤ 50 nM and the Dmax was ≥ 80%.
In the case of `COc1cc(C(=O)NC2CCN(CCOCCOCCOCCOCCNc3cccc4nnn(C5CCC(=O)NC5=O)c(=O)c34)CC2)c(F)cc1Nc1ncc2c(n1)N(C1CCCC1)CC(F)(F)C(=O)N2C` (centres unmarked) [Compound 78, 4-((9-cyclopentyl-7,7-difluoro-5-methyl-6-oxo-6,7,8,9-tetrahydro-5H-pyrimido[4,5-b][1,4]diazepin-2-yl)amino)-N-(1-(14-((3-(2,6-dioxopiperidin-3-yl)-4-oxo-3,4-dihydrobenzo[d][1,2,3]triazin-5-yl)amino)-3,6,9,12-tetraoxatetradecyl)piperidin-4-yl)-2-fluoro-5-methoxybenzamide], the DC50 is reported as ≤ 50 nM and the Dmax is reported as ≥ 80%.
For `COc1cc(C(=O)N[C@H]2CCN(C(=O)COCCOCCNc3cccc4c3C(=O)N(C3CCC(=O)NC3=O)C4=O)C2)c(F)cc1Nc1ncc2c(n1)N(C1CCCC1)CC(F)(F)C(=O)N2C` (stereo partly drawn) [Compound 115, 4-((9-cyclopentyl-7,7-difluoro-5-methyl-6-oxo-6,7,8,9-tetrahydro-5H-pyrimido[4,5-b][1,4]diazepin-2-yl)amino)-N-((3S)-1-(2-(2-(2-((2-(2,6-dioxopiperidin-3-yl)-1,3-dioxoisoindolin-4-yl)amino)ethoxy)ethoxy)acetyl)pyrrolidin-3-yl)-2-fluoro-5-methoxybenzamide], the DC50 was ≤ 50 nM and the Dmax was ≥ 80%.
For `COc1cc(C(=O)NCCCOCCCOCCNc2cccc3c2C(=O)N(C2CCC(=O)NC2=O)C3=O)ccc1Nc1ncc2c(n1)N(C1CCCC1)CC(F)(F)C(=O)N2C` (centres unmarked) [Example 169, 4-((9-cyclopentyl-7,7-difluoro-5-methyl-6-oxo-6,7,8,9-tetrahydro-5H-pyrimido[4,5-b][1,4]diazepin-2-yl)amino)-N-(3-(3-(2-((2-(2,6-dioxopiperidin-3-yl)-1,3-dioxoisoindolin-4-yl)amino)ethoxy)propoxy)propyl)-3-methoxybenzamide], the Dmax was ≥ 80%.
For `COc1cc(C(=O)NC2CCN(CCOCCCOCCOCCOCCNc3cccc4c3C(=O)N(C3CCC(=O)NC3=O)C4=O)CC2)c(F)cc1Nc1ncc2c(n1)N(C1CCCC1)CC(F)(F)C(=O)N2C` (centres unmarked) [Compound 25, 4-((9-cyclopentyl-7,7-difluoro-5-methyl-6-oxo-6,7,8,9-tetrahydro-5H-pyrimido[4,5-b][1,4]diazepin-2-yl)amino)-N-(1-(1-((2-(2,6-dioxopiperidin-3-yl)-1,3-dioxoisoindolin-4-yl)amino)-3,6,9,13-tetraoxapentadecan-15-yl)piperidin-4-yl)-2-fluoro-5-methoxybenzamide], the DC50 was ≤ 50 nM and the Dmax was ≥ 80%.
With `COc1cc(C(=O)NC2CCCN(CCOCCOCCNc3cccc4c3C(=O)N(C3CCC(=O)NC3=O)C4=O)C2)c(F)cc1Nc1ncc2c(n1)N(C1CCCC1)CC(F)(F)C(=O)N2C` (centres unmarked) [Example 104, 4-((9-cyclopentyl-7,7-difluoro-5-methyl-6-oxo-6,7,8,9-tetrahydro-5H-pyrimido[4,5-b][1,4]diazepin-2-yl)amino)-N-(1-(2-(2-(2-((2-(2,6-dioxopiperidin-3-yl)-1,3-dioxoisoindolin-4-yl)amino)ethoxy)ethoxy)ethyl)piperidin-3-yl)-2-fluoro-5-methoxybenzamide] the DC50 was ≤ 50 nM and the Dmax was ≥ 80%.
In the case of `COc1cc(C(=O)NC2CCN(CCCCCCCCNc3cccc4c3C(=O)N(C3CCC(=O)NC3=O)C4=O)CC2)c(F)cc1Nc1ncc2c(n1)N(C1CCCC1)CC(F)(F)C(=O)N2C` (centres unmarked) [Compound 12, 4-((9-cyclopentyl-7,7-difluoro-5-methyl-6-oxo-6,7,8,9-tetrahydro-5H-pyrimido[4,5-b][1,4]diazepin-2-yl)amino)-N-(1-(8-((2-(2,6-dioxopiperidin-3-yl)-1,3-dioxoisoindolin-4-yl)amino)octyl)piperidin-4-yl)-2-fluoro-5-methoxybenzamide], the DC50 is reported as > 500 nM and the Dmax is reported as 60 to 80%.
`COc1cc(C(=O)NC2CCN(C(=O)CCOCCNc3cccc4c3C(=O)N(C3CCC(=O)NC3=O)C4=O)CC2)c(F)cc1Nc1ncc2c(n1)N(C1CCCC1)CC(F)(F)C(=O)N2C` (centres unmarked) [Compound 32, 4-((9-cyclopentyl-7,7-difluoro-5-methyl-6-oxo-6,7,8,9-tetrahydro-5H-pyrimido[4,5-b][1,4]diazepin-2-yl)amino)-N-(1-(3-(2-((2-(2,6-dioxopiperidin-3-yl)-1,3-dioxoisoindolin-4-yl)amino)ethoxy)propanoyl)piperidin-4-yl)-2-fluoro-5-methoxybenzamide] was tested, and the DC50 was ≤ 50 nM and the Dmax was ≥ 80%.
With `COc1cc(C(=O)NC2CC3(C2)CN(C(=O)CCCCNc2cccc4c2C(=O)N(C2CCC(=O)NC2=O)C4=O)C3)c(F)cc1Nc1ncc2c(n1)N(C1CCCC1)CC(F)(F)C(=O)N2C` (centres unmarked) [Compound 161, 4-((9-cyclopentyl-7,7-difluoro-5-methyl-6-oxo-6,7,8,9-tetrahydro-5H-pyrimido[4,5-b][1,4]diazepin-2-yl)amino)-N-(2-(5-((2-(2,6-dioxopiperidin-3-yl)-1,3-dioxoisoindolin-4-yl)amino)pentanoyl)-2-azaspiro[3.3]heptan-6-yl)-2-fluoro-5-methoxybenzamide] the DC50 was ≤ 50 nM and the Dmax was ≥ 80%.
In the case of `COc1cc(C(=O)NC2CCN(C(=O)COCCOCCOCCOCCNc3cccc4c3C(=O)N(C3CCC(=O)NC3=O)C4=O)CC2)c(F)cc1Nc1ncc2c(n1)N(C1CCCC1)CC(F)(F)C(=O)N2C` (centres unmarked) [Compound 34, 4-((9-cyclopentyl-7,7-difluoro-5-methyl-6-oxo-6,7,8,9-tetrahydro-5H-pyrimido[4,5-b][1,4]diazepin-2-yl)amino)-N-(1-(14-((2-(2,6-dioxopiperidin-3-yl)-1,3-dioxoisoindolin-4-yl)amino)-3,6,9,12-tetraoxatetradecanoyl)piperidin-4-yl)-2-fluoro-5-methoxybenzamide], the DC50 is reported as ≤ 50 nM and the Dmax is reported as ≥ 80%.
`COc1cc(C(=O)NCCOCCOCCNc2ccc3c(c2)C(=O)N(C2CCC(=O)NC2=O)C3=O)c(F)cc1Nc1ncc2c(n1)N(C1CCCC1)CC(F)(F)C(=O)N2C` (centres unmarked) [Compound 163, 4-((9-cyclopentyl-7,7-difluoro-5-methyl-6-oxo-6,7,8,9-tetrahydro-5H-pyrimido[4,5-b][1,4]diazepin-2-yl)amino)-N-(2-(2-(2-((2-(2,6-dioxopiperidin-3-yl)-1,3-dioxoisoindolin-5-yl)amino)ethoxy)ethoxy)ethyl)-2-fluoro-5-methoxybenzamide] was tested, and the DC50 was ≤ 500 nM and the Dmax was 60 to 80%.
